Test systems include EKVX NSCLC; IGROV1 ovarian; OVCAR-3 ovarian; SF-539 CNS; SK-MEL-28 melanoma; SK-OV-3 ovarian; SN12C renal; UACC-62 melanoma.
Common to all, as to test: DTP human tumour cell line panel, 48 h

The results in this text go back to PubChem BioAssay (NCI).

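Following 48 hours of exposure in 96-well plates, responses at five concentrations were used to interpolate endpoints linearly. GI50 is the concentration that inhibits growth by half. The concentration for full growth arrest is given as TGI.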

As for `CC1(C)CC(=O)C(/C(=N/NC(=S)NN)C(=O)Nc2nc3ccc([N+](=O)[O-])cc3s2)C(=O)C1`, the total growth inhibition concentration (TGI) in the assay on EKVX NSCLC, in the assay with IGROV1 ovarian, in the assay with OVCAR-3 ovarian, with SF-539 CNS, in the assay with SK-MEL-28 melanoma and in the assay on SK-OV-3 ovarian was above 100 µM in each case. The TGI with SN12C renal and in the assay on UACC-62 melanoma was above 100 µM throughout.
Take `COC(=O)[C@@]1(C(C)CC(=O)O)CCCCC1=O` (stereo partly drawn): the TGI in the assay with EKVX NSCLC, with IGROV1 ovarian, in the assay with OVCAR-3 ovarian, in the assay on SF-539 CNS, with SK-MEL-28 melanoma and with SK-OV-3 ovarian was above 100 µM throughout. For the same molecule, the TGI in the assay with SN12C renal and in the assay with UACC-62 melanoma was above 100 µM each time.
For the molecule `O=C(c1nc2ccccc2[nH]c1=O)C(O)c1ccccc1` (stereo not drawn), the TGI in the assay with EKVX NSCLC, with IGROV1 ovarian, with OVCAR-3 ovarian, with SF-539 CNS, in the assay on SK-MEL-28 melanoma and with SK-OV-3 ovarian was above 100 µM in each case. For the same molecule, the TGI in the assay with SN12C renal and with UACC-62 melanoma was above 100 µM in each case.
`NC(=O)c1csc(C2OC(COP(=O)(O)CP(=O)(O)OCC3OC(n4cnc5c(N)ncnc54)C(O)C3O)C(O)C2O)n1` (stereo not drawn): the TGI in the assay with EKVX NSCLC, in the assay on IGROV1 ovarian, with OVCAR-3 ovarian, in the assay on SF-539 CNS, in the assay on SK-MEL-28 melanoma and in the assay on SK-OV-3 ovarian was above 100 µM each time. For the same molecule, the TGI in the assay on SN12C renal and in the assay with UACC-62 melanoma was above 100 µM throughout.
As for `CCCCCCCCCCCCC(Br)C(=O)NCC(N)=O` (stereo not drawn), the concentration for total growth inhibition (TGI) (usually the concentration at which net growth stops) in the assay on EKVX NSCLC came out at 42 µM; with IGROV1 ovarian, 29.8 µM; with OVCAR-3 ovarian it was 32.1 µM; in the assay with SF-539 CNS it was 27.7 µM; in the assay with SK-MEL-28 melanoma, 29.2 µM; in the assay with SK-OV-3 ovarian, 59.2 µM. In the assay with UACC-62 melanoma, this molecule came in with a total growth inhibition concentration (TGI) of 22.7 µM.
For the molecule `COc1ccc(-c2cc(C(=O)Nc3ccc(C)c(C)c3)nc(NC#N)n2)cc1`, the total growth inhibition concentration (TGI) in the assay with EKVX NSCLC, in the assay on IGROV1 ovarian, in the assay on OVCAR-3 ovarian, with SF-539 CNS, with SK-MEL-28 melanoma and in the assay with SK-OV-3 ovarian was above 100 µM throughout. The total growth inhibition concentration (TGI) with SN12C renal and with UACC-62 melanoma was above 100 µM throughout.
Take `CCCCC1(C)C=C/C(=C2/C(=O)O/C(=C\C(=O)O)C2=O)O1` (stereo not drawn): the TGI in the assay on EKVX NSCLC, with IGROV1 ovarian, in the assay on OVCAR-3 ovarian, in the assay with SF-539 CNS, with SK-MEL-28 melanoma and in the assay with SK-OV-3 ovarian was above 100 µM throughout. Also, the TGI in the assay with SN12C renal and in the assay with UACC-62 melanoma was above 100 µM each time.
As to `Cc1ccc(C)c(N2C(=O)C(=O)C(c3nc4ccccc4s3)/C(=N/NC(=O)NN)C2=O)c1` (stereo not drawn), the total growth inhibition concentration (TGI) in the assay with EKVX NSCLC, in the assay on IGROV1 ovarian, in the assay with OVCAR-3 ovarian, with SF-539 CNS, in the assay with SK-MEL-28 melanoma and in the assay with SK-OV-3 ovarian was above 100 µM throughout. Also, the total growth inhibition concentration (TGI) in the assay with SN12C renal and in the assay on UACC-62 melanoma was above 100 µM each time.
`CC1(c2ccccc2Cl)C(C#N)C(=O)NC(=O)C1C#N` (stereo not drawn): the TGI is above 100 µM in the assay on EKVX NSCLC; above 100 µM with IGROV1 ovarian; 46.7 µM with OVCAR-3 ovarian; above 100 µM with SF-539 CNS; above 100 µM in the assay on SK-MEL-28 melanoma; above 100 µM in the assay with SK-OV-3 ovarian. In addition, the total growth inhibition concentration (TGI) in the assay on SN12C renal and in the assay with UACC-62 melanoma was above 100 µM each time.
For `C=C1CCC2[C@@H](CCC3[C@]2(C)CCC[C@]3(C)C(=O)OC)C1CC=O` (stereo partly drawn), the TGI in the assay on EKVX NSCLC was 36 µM; in the assay with IGROV1 ovarian it was 38.6 µM; in the assay with OVCAR-3 ovarian it was 27.7 µM; in the assay on SF-539 CNS, 31.1 µM; in the assay with SK-MEL-28 melanoma it was 30.7 µM; in the assay with SK-OV-3 ovarian it was 37.7 µM. Moreover, the concentration for total growth inhibition (TGI) in the assay with SN12C renal is 36.7 µM; in the assay on UACC-62 melanoma it was 31.6 µM. In addition, in the assay with SK-OV-3 ovarian, the GI50 – broadly, the concentration that inhibits growth by half – is 21.4 µM.
With `COc1ccc(CCC2c3cc(OC)c(OC)cc3CCN2C)cc1OC` (stereo not drawn), the TGI in the assay on EKVX NSCLC, in the assay with IGROV1 ovarian, in the assay with OVCAR-3 ovarian, in the assay with SF-539 CNS, with SK-MEL-28 melanoma and in the assay on SK-OV-3 ovarian was above 100 µM throughout. Besides, the concentration for total growth inhibition (TGI) with SN12C renal and in the assay with UACC-62 melanoma was above 100 µM in each case.
Consider `COCOCC/C=C/C=O`, for which the TGI in the assay with EKVX NSCLC, in the assay on IGROV1 ovarian, in the assay with OVCAR-3 ovarian, in the assay on SF-539 CNS, in the assay on SK-MEL-28 melanoma and in the assay on SK-OV-3 ovarian was above 100 µM in each case. The TGI in the assay with SN12C renal and in the assay with UACC-62 melanoma was above 100 µM throughout.
As to `O=C1Nc2ccccc2N=CC1NC(=O)C(c1ccccc1)c1ccccc1` (stereo not drawn), the TGI with EKVX NSCLC, in the assay on IGROV1 ovarian, with OVCAR-3 ovarian, in the assay with SF-539 CNS, in the assay with SK-MEL-28 melanoma and in the assay on SK-OV-3 ovarian was above 100 µM each time. The TGI in the assay with SN12C renal and in the assay on UACC-62 melanoma was above 100 µM each time.
Take `N#CC(C#N)c1ccc(C(=O)N2CCC[C@H]2CO)cc1`: the TGI with EKVX NSCLC, in the assay on IGROV1 ovarian, in the assay with OVCAR-3 ovarian, in the assay on SF-539 CNS, in the assay on SK-MEL-28 melanoma and with SK-OV-3 ovarian was above 100 µM in each case. In addition, the TGI in the assay with SN12C renal and in the assay with UACC-62 melanoma was above 100 µM each time.
Turning to `Nc1c([N+](=O)[O-])nc(Cl)c2nncn12`, the TGI with EKVX NSCLC, in the assay on IGROV1 ovarian, in the assay with OVCAR-3 ovarian, in the assay on SF-539 CNS, in the assay with SK-MEL-28 melanoma and with SK-OV-3 ovarian was above 100 µM each time. The total growth inhibition concentration (TGI) in the assay on SN12C renal and in the assay on UACC-62 melanoma was above 100 µM throughout.
Take `COCCNC(=O)C1C(=O)C(=O)N(CCOC)C1=O` (stereo not drawn): the TGI in the assay on EKVX NSCLC, in the assay on IGROV1 ovarian, in the assay on OVCAR-3 ovarian, in the assay with SF-539 CNS, in the assay with SK-MEL-28 melanoma and in the assay with SK-OV-3 ovarian was above 100 µM throughout. The TGI with SN12C renal and with UACC-62 melanoma was above 100 µM in each case.
